23 compounds from patent US10717730B1, “Dihydroisoquinoline compound” (SUZHOU ARK BIOPHARMACEUTICAL CO., LTD., priority 2017, dated 2020) can be followed below.

Data set [1] in a line: Cytotoxicity CC50 (CellTiter-Glo). Format: cell-based. The following applies: human; HepG2.2.15 cells, four days. As to the method:
HepG2.2.15 cells were seeded into 96-well white plate at 5000 cells/well and treated with serially diluted compounds. The plates were incubated in incubator with 5% CO2 at 37° C. for four days. The plate was taken out of incubator and adapted to room temperature for 30 minutes, followed by adding 25 μl CellTiter-Glo (Promega) reagent into each well and votexed at room temperature before being measured for luminance using spectrometer (Tecan Infinite® F200). The CC50 of each compound was defined as the compound concentration at which the treated well's cell viability is 50% compared to that of the DMSO treated well.
A general note: ATP-based viability assays read luminescence as a measure of living cells.

Data set [2] has as its system HBsAg. Kind of data set: HBsAg assay (secreted HBsAg by CLIA in HepG2.2.15 cells). The class given is cell-based, hepatitis B virus (HBV). The settings on record: Hepatitis B virus, HepG2.2.15, 96 h. As for the experimental part: HepG2.2.15 cells (Sells et al, Proc Natl Acad Sci USA. 1987 February; 84(4):1005-9), a constitutively HBV-expressing cell line, were cultured in DMEM medium supplemented with 10% FBS and 400 μg/mL G418, and maintained in 5% CO2 at 37° C.
HepG2.2.15 cells were seeded into 96-well plates at 3×10^4 cells/well. The next day, the cells were treated with a five-fold serial dilution series of the compound in DMSO. The final DMSO concentration in all wells was 0.5% and 0.5% DMSO was used as no drug control. After four days of incubation with compounds, the supernatants were harvested and measured for HBsAg concentration
The HBsAg chemiluminescence immunoassay (CLIA) kit was used to measure the levels of secreted HBsAg. Specifically, 50 μL of culture supernatant was transferred to the CLIA assay plate and 50 μL of enzyme conjugate reagent was added into each well. The plates were sealed and incubated for 1 hour at room temperature. The supernatant-enzyme-mixture was discarded and wells were washed for 6 times. The residual liquid was removed by plating on tissue paper. 25 μL of substrate A and B were added into each well. Luminance was measured using a spectrometer (Tecan Infinite® F200) after 10 minutes incubation. IC50 value was extrapolated based the dose-response curves generated from the data.

Consider `CNc1ncc(-c2cc3c(cc2OC)-c2cc(=O)c(C(=O)O)cn2C(C(C)(C)C)C3)cn1` (stereo not drawn) [Example 60, 6-(tert-butyl)-10-methoxy-9-(2-(methylamino)pyrimidin-5-yl)-2-oxo-6,7-dihydro-2H-pyrido[2,1-a]isoquinoline-3-carboxylic acid], for which the CC50 – broadly, the concentration at which the toxic effect on the cells reaches its halfway point – at 4 days in data set [1] is 50000 to 100000 nM. Further, in data set [2], it took 0.1 nM to reach half-maximal inhibition (IC50).

As to `CCN1CCN(c2ncc(-c3cc4c(cc3OC)-c3cc(=O)c(C(=O)O)cn3C(C(C)(C)C)C4)cn2)CC1` (stereo not drawn) [Example 63, 6-(tert-butyl)-9-(2-(4-ethylpiperazin-1-yl)pyrimidin-5-yl)-10-methoxy-2-oxo-6,7-dihydro-2H-pyrido[2,1-a]isoquinoline-3-carboxylic acid], the CC50 at 4 days in data set [1] is 50000 to 100000 nM. For the same compound, the IC50 (in general, the concentration that gives 50% inhibition) in data set [2] turned out to be 27 nM.

In data set [1], `COc1cc2c(cc1-c1c[nH]nc1C)CC(C(C)(C)C)n1cc(C(=O)O)c(=O)cc1-2` (stereo not drawn) [Example 25, 6-(tert-butyl)-10-methoxy-9-(3-methyl-1H-pyrazol-4-yl)-2-oxo-6,7-dihydro-2H-pyrido[2,1-a]isoquinoline-3-carboxylic acid] showed a 50% cytotoxic concentration (CC50) at 4 days of 50000 to 100000 nM. The same compound showed a half-inhibitory concentration (IC50) in data set [2] of 7 nM.

Consider `COc1cc2c(cc1-c1ccnn1C(C)C)CC(C(C)(C)C)n1cc(C(=O)O)c(=O)cc1-2` (stereo not drawn) [Example 18, 6-(tert-butyl)-9-(1-isopropyl-1H-pyrazol-5-yl)-10-methoxy-2-oxo-6,7-dihydro-2H-pyrido[2,1-a]isoquinoline-3-carboxylic acid], for which the cytotoxic concentration (CC50) at 4 days in data set [1] lay in the range of 50000 to 100000 nM. 77 nM corresponded to half-maximal inhibition in data set [2] (IC50).

Consider `CCOC(=O)c1cn2c(cc1=O)-c1cc(OC)c(-c3ccc(=O)n(C(C)(C)C(=O)OCC)c3)cc1CC2C(C)(C)C` (stereo not drawn) [Example 70, Ethyl 6-(tert-butyl)-9-(1-(1-ethoxy-2-methyl-1-oxoprop-2-yl)-6-oxo-1,6-dihydropyridin-3-yl)-10-methoxy-2-oxo-6,7-dihydro-2H-pyrido[2,1-a]isoquinoline-3-carboxylate], for which, in data set [1], the half-maximal cytotoxic concentration (CC50) at 4 days lay in the range of 50000 to 100000 nM. In addition, the concentration for half-maximal inhibition (IC50) in data set [2] was found to be 44 nM.

In the case of `COc1cc2c(cc1-c1cnc(N3CCC(C(=O)O)CC3)nc1)CC(C(C)(C)C)n1cc(C(=O)O)c(=O)cc1-2` (stereo not drawn) [Example 73, 6-(tert-butyl)-9-(2-(4-carboxypiperidin-1-yl)pyrimidin-5-yl)-10-methoxy-2-oxo-6,7-dihydro-2H-pyrido[2,1-a]isoquinoline-3-carboxylic acid], in data set [1], the CC50 at 4 days is over 100000 nM. Moreover, the half-maximal inhibitory concentration (IC50) in data set [2] came to 67 nM.

`COc1cc2c(cc1-c1ccc(N3CCC(O)CC3)nc1)CC(C(C)(C)C)n1cc(C(=O)O)c(=O)cc1-2` (stereo not drawn) [Example 51, 6-(tert-butyl)-9-(6-(4-hydroxypiperidin-1-yl)pyridin-3-yl)-10-methoxy-2-oxo-6,7-dihydro-2H-pyrido[2,1-a]isoquinoline-3-carboxylic acid]: in data set [1], the CC50 at 4 days was over 100000 nM. 0.8 nM corresponded to half-maximal inhibition in data set [2] (IC50).

Compound `CCOC(=O)Cn1cc(-c2cc3c(cc2OC)-c2cc(=O)c(C(=O)OCC)cn2C(C(C)(C)C)C3)ccc1=O` (stereo not drawn) [Example 71, Ethyl 6-(tert-butyl)-9-(1-(2-ethoxy-2-oxoethyl)-6-oxo-1,6-dihydropyridin-3-yl)-10-methoxy-2-oxo-6,7-dihydro-2H-pyrido[2,1-a]isoquinoline-3-carboxylate] showed a CC50 at 4 days in data set [1] of over 100000 nM. In data set [2], this compound registered a concentration for half-maximal inhibition (IC50) of 192 nM.

Consider `CCOC(=O)CCn1cc(-c2cc3c(cc2OC)-c2cc(=O)c(C(=O)OCC)cn2C(C(C)(C)C)C3)cn1` (stereo not drawn) [Example 21, Ethyl 6-(tert-butyl)-9-(1-(3-ethoxy-3-oxopropyl)-1H-pyrazol-4-yl)-10-methoxy-2-oxo-6,7-dihydro-2H-pyrido[2,1-a]isoquinoline-3-carboxylate], for which the cytotoxic concentration (CC50) at 4 days in data set [1] was in the range of 50000 to 100000 nM. In data set [2], this compound gave an IC50 of 16 nM.

With `COc1cc2c(cc1-c1cnn(CCC(=O)O)c1)CC(C(C)(C)C)n1cc(C(=O)O)c(=O)cc1-2` (stereo not drawn) [Example 22, 6-(tert-butyl)-9-(1-(2-carboxyethyl)-1H-pyrazol-4-yl)-10-methoxy-2-oxo-6,7-dihydro-2H-pyrido[2,1-a]isoquinoline-3-carboxylic acid], in data set [1], the CC50 at 4 days was 50000 to 100000 nM. In data set [2], this compound displayed an IC50 of 7 nM.

On to `COc1cc2c(cc1-c1ccc(C)nc1)CC(C(C)(C)C)n1cc(C(=O)O)c(=O)cc1-2` (stereo not drawn) [Example 37, 6-(tert-butyl)-10-methoxy-9-(6-methylpyridin-3-yl)-2-oxo-6,7-dihydro-2H-pyrido[2,1-a]isoquinoline-3-carboxylic acid], for which, in data set [1], the 50% cytotoxic concentration (CC50) at 4 days was in the range of 50000 to 100000 nM. For the same compound, the half-inhibitory concentration (IC50) in data set [2] is 9 nM.

In turn, `COc1cc2c(cc1-c1ccc(N3CCC3)nc1)CC(C(C)(C)C)n1cc(C(=O)O)c(=O)cc1-2` (stereo not drawn) [Example 50, 9-(6-(azetidin-1-yl)pyridin-3-yl)-6-(tert-butyl)-10-methoxy-2-oxo-6,7-dihydro-2H-pyrido[2,1-a]isoquinoline-3-carboxylic acid] yielded a CC50 at 4 days in data set [1] of 50000 to 100000 nM. For the same compound, it took 0.5 nM to reach half-maximal inhibition in data set [2] (IC50).

As for `COc1cc2c(cc1-c1cnc(N3CCC3)nc1)CC(C(C)(C)C)n1cc(C(=O)O)c(=O)cc1-2` (stereo not drawn) [Example 69, 9-(2-(azetidin-1-yl)pyrimidin-5-yl)-6-(tert-butyl)-10-methoxy-2-oxo-6,7-dihydro-2H-pyrido[2,1-a]isoquinoline-3-carboxylic acid], the CC50 at 4 days in data set [1] lay within 50000 to 100000 nM. This compound yielded a half-maximal inhibitory concentration (IC50) in data set [2] of 5 nM.

In the case of `COc1cc2c(cc1-c1cnn(CC(=O)O)c1)CC(C(C)(C)C)n1cc(C(=O)O)c(=O)cc1-2` (stereo not drawn) [Example 20, 6-(tert-butyl)-9-(1-carboxymethyl-1H-pyrazol-4-yl)-10-methoxy-2-oxo-6,7-dihydro-2H-pyrido[2,1-a]isoquinoline-3-carboxylic acid], the 50% cytotoxic concentration (CC50) at 4 days in data set [1] is over 100000 nM. Moreover, the half-inhibitory concentration (IC50) in data set [2] amounted to 7 nM.

In data set [1], `COc1cc2c(cc1-c1cnn(CCCC(=O)O)c1)CC(C(C)(C)C)n1cc(C(=O)O)c(=O)cc1-2` (stereo not drawn) [Example 24, 6-(tert-butyl)-9-(1-(3-carboxypropyl)-1H-pyrazol-4-yl)-10-methoxy-2-oxo-6,7-dihydro-2H-pyrido[2,1-a]isoquinoline-3-carboxylic acid] had a 50% cytotoxic concentration (CC50) at 4 days of 50000 to 100000 nM. Moreover, in data set [2], half-maximal inhibition (IC50) required 8 nM.

As to `COc1cc2c(cc1-c1c(C)cnn1C)CC(C(C)(C)C)n1cc(C(=O)O)c(=O)cc1-2` (stereo not drawn) [Example 19, 6-(tert-butyl)-9-(1,4-dimethyl-1H-pyrazol-5-yl)-10-methoxy-2-oxo-6,7-dihydro-2H-pyrido[2,1-a]isoquinoline-3-carboxylic acid], in data set [1], the half-maximal cytotoxic concentration (CC50) at 4 days lay within 50000 to 100000 nM. The compound also returned an IC50 in data set [2] of 68 nM.

In data set [2], `COc1cc2c(cc1-c1ccc(NC(C)=O)nc1)CC(C(C)(C)C)n1cc(C(=O)O)c(=O)cc1-2` (stereo not drawn) [Example 57, 9-(6-acetamidopyridin-3-yl)-6-(tert-butyl)-10-methoxy-2-oxo-6,7-dihydro-2H-pyrido[2,1-a]isoquinoline-3-carboxylic acid] returned an IC50 of 1 nM.

Compound `COc1cc2c(cc1-c1cnc(F)cc1C)CC(C(C)(C)C)n1cc(C(=O)O)c(=O)cc1-2` (stereo not drawn) [Example 48, 6-(tert-butyl)-9-(6-fluoro-4-methylpyridin-3-yl)-10-methoxy-2-oxo-6,7-dihydro-2H-pyrido[2,1-a]isoquinoline-3-carboxylic acid] yielded an IC50 in data set [2] of 68 nM.

For the compound `COc1cc2c(cc1-c1cnn(C(C)(C)C(=O)O)c1)CC(C(C)(C)C)n1cc(C(=O)O)c(=O)cc1-2` (stereo not drawn) [Example 27, 6-(tert-butyl)-9-(1-(2-carboxyprop-2-yl)-1H-pyrazol-4-yl)-10-methoxy-2-oxo-6,7-dihydro-2H-pyrido[2,1-a]isoquinoline-3-carboxylic acid], the IC50 in data set [2] amounted to 4 nM.

In data set [2], `COc1cc2c(cc1-c1ccc(N3CCOCC3)nc1)CC(C(C)(C)C)n1cc(C(=O)O)c(=O)cc1-2` (stereo not drawn) [Example 40, 6-(tert-butyl)-10-methoxy-9-(6-morpholinylpyridin-3-yl)-2-oxo-6,7-dihydro-2H-pyrido[2,1-a]isoquinoline-3-carboxylic acid] came in with a concentration for half-maximal inhibition (IC50) of 6 nM. Against the preceding compound, the IC50 is about 1.5-fold higher.

As to `COc1cc2c(cc1-c1cnn(C3COC3)c1)CC(C(C)(C)C)n1cc(C(=O)O)c(=O)cc1-2` (stereo not drawn) [Example 11, 6-(tert-butyl)-10-methoxy-9-(1-(oxetan-3-yl)-1H-pyrazol-4-yl)-2-oxo-6,7-dihydro-2H-pyrido[2,1-a]isoquinoline-2-carboxylic acid], in data set [2], the half-maximal inhibitory concentration (IC50) is 3 nM.

`COc1cc2c(cc1-c1cc(C)nn1C)CC(C(C)(C)C)n1cc(C(=O)O)c(=O)cc1-2` (stereo not drawn) [Example 15, 6-(tert-butyl)-9-(1,3-dimethyl-1H-pyrazol-5-yl)-10-methoxy-2-oxo-6,7-dihydro-2H-pyrido[2,1-a]isoquinoline-3-carboxylic acid]: the IC50 in data set [2] worked out at 4 nM. This IC50 and that of the compound before are within 1.5-fold of each other.

The compound `COc1cc2c(cc1-c1cnc(N3CCCC3)nc1)CC(C(C)(C)C)n1cc(C(=O)O)c(=O)cc1-2` (stereo not drawn) [Example 59, 6-(tert-butyl)-10-methoxy-2-oxo-9-(2-(pyrrolidin-1-yl)pyrimidin-5-yl)-6,7-dihydro-2H-pyrido[2,1-a]isoquinoline-3-carboxylic acid] displayed a concentration for half-maximal inhibition (IC50) in data set [2] of 10 nM. Against the preceding compound, the IC50 is about 2.5-fold higher.
